Converted amounts (≈) assume the structure as drawn.
Key:
[1] = system: Candida tropicalis; assay: Inhibition of Candida tropicalis ATCC 750 chitin synthase using UDP-GlcNAc as substrate at 300 ug/ml incubated for 1 hrs by absorbance based assay relative to control; details: dose 300.0 µg/ml
[2] = system: Candida albicans; assay: Antifungal activity against Candida albicans ATCC 76615 assessed as fungal growth inhibition incubated for 24 hrs by CLSI protocol based broth microdilution method; assay type: functional
[3] = system: Aspergillus flavus; assay: Antifungal activity against Aspergillus flavus ATCC 16870 assessed as fungal growth inhibition incubated for 24 hrs by CLSI protocol based broth microdilution method; assay type: functional
[4] = system: Aspergillus fumigatus; assay: Antifungal activity against Aspergillus fumigatus GIMCC 3.19 assessed as fungal growth inhibition incubated for 24 hrs by CLSI protocol based broth microdilution method; assay type: functional
[5] = system: Cryptococcus neoformans; assay: Antifungal activity against Cryptococcus neoformans ATCC 208821 assessed as fungal growth inhibition incubated for 24 hrs by CLSI protocol based broth microdilution method; assay type: functional
[6] = Inhibition of Candida tropicalis ATCC 750 chitin synthase using UDP-GlcNAc as substrate incubated for 1 hrs by absorbance based assay
[7] = system: Candida albicans; assay: Synergistic antifungal activity against Candida albicans ATCC 76615 assessed as fungal growth inhibition incubated for 24 hrs in the presence of fluconazole by broth dilution based checkerboard method; assay type: functional
[8] = system: Aspergillus fumigatus; assay: Synergistic antifungal activity against Aspergillus fumigatus GIMCC 3.19 assessed as fungal growth inhibition incubated for 24 hrs in the presence of fluconazole by broth dilution based checkerboard method; assay type: functional
[9] = system: Cryptococcus neoformans; assay: Synergistic antifungal activity against Cryptococcus neoformans ATCC 208821 assessed as fungal growth inhibition incubated for 24 hrs in the presence of fluconazole by broth dilution based checkerboard method; assay type: functional
[10] = system: Aspergillus flavus; assay: Synergistic antifungal activity against Aspergillus flavus ATCC 16870 assessed as fungal growth inhibition incubated for 24 hrs in the presence of fluconazole by broth dilution based checkerboard method; assay type: functional
[11] = system: Candida albicans; assay: Synergistic antifungal activity against Candida albicans ATCC 76615 assessed as fractional inhibitory concentration index incubated for 24 hrs in the presence of fluconazole by broth dilution based checkerboard method; assay type: functional
[12] = system: Aspergillus fumigatus; assay: Synergistic antifungal activity against Aspergillus fumigatus GIMCC 3.19 assessed as fractional inhibitory concentration index incubated for 24 hrs in the presence of fluconazole by broth dilution based checkerboard method; assay type: functional
[13] = system: Cryptococcus neoformans; assay: Synergistic antifungal activity against Cryptococcus neoformans ATCC 208821 assessed as fractional inhibitory concentration index incubated for 24 hrs in the presence of fluconazole by broth dilution based checkerboard method; assay type: functional
[14] = system: Aspergillus flavus; assay: Synergistic antifungal activity against Aspergillus flavus ATCC 16870 assessed as fractional inhibitory concentration index incubated for 24 hrs in the presence of fluconazole by broth dilution based checkerboard method; assay type: functional

Structure (SMILES)	inhibition [1] [%]	MIC [2] [µg/mL]	MIC [3] [µg/mL]	MIC [4] [µg/mL]	MIC [5] [µg/mL]	IC50 [6] [µM]	MIC [7] [µg/mL]	MIC [8] [µg/mL]	MIC [9] [µg/mL]	MIC [10] [µg/mL]	fractional inhibitory concentration index (FICI) [11]	fractional inhibitory concentration index (FICI) [12]	fractional inhibitory concentration index (FICI) [13]	fractional inhibitory concentration index (FICI) [14]
COc1ccc2c(c1)C1(CCN(C(=O)C(O)C(O)C(=O)Nc3ccccc3)CC1)OC(=O)N2 (stereo not given)	41	512 (≈ 1120 µM)	512 (≈ 1120 µM)	512 (≈ 1120 µM)	> 512									
COc1ccc2c(c1)C1(CCN(C(=O)/C=C/C(=O)Nc3cc(C)cc(C)c3)CC1)OC(=O)N2	16	512 (≈ 1140 µM)	512 (≈ 1140 µM)	> 512	> 512									
COc1ccc2c(c1)C1(CCN(C(=O)CCC(=O)Nc3ccccc3)CC1)OC(=O)N2	6	> 512	256 (≈ 605 µM)	> 512	> 512									
COc1ccc2c(c1)C1(CCN(C(=O)CC(=O)Nc3ccc(Br)cc3)CC1)OC(=O)N2	18	512 (≈ 1050 µM)	256 (≈ 524 µM)	256 (≈ 524 µM)	256 (≈ 524 µM)									
COc1ccc2c(c1)C1(CCN(C(=O)/C=C/C(=O)Nc3ccc([N+](=O)[O-])cc3)CC1)OC(=O)N2	13	512 (≈ 1100 µM)	> 512	> 512	> 512									
COc1ccc2c(c1)C1(CCN(C(=O)/C=C/C(=O)Nc3ccc(C(F)(F)F)cc3C(F)(F)F)CC1)OC(=O)N2	30	256 (≈ 459 µM)	> 512	> 512	> 512									
COc1ccc2c(c1)C1(CCN(C(=O)/C=C/C(=O)Nc3cccc4ccccc34)CC1)OC(=O)N2	46	256 (≈ 543 µM)	> 512	> 512	256 (≈ 543 µM)									
COc1ccc2c(c1)C1(CCN(C(=O)/C=C/C(=O)Nc3ccc(C(F)(F)F)cc3)CC1)OC(=O)N2	15	512 (≈ 1050 µM)	128 (≈ 262 µM)	> 512	256 (≈ 523 µM)									
COc1ccc2c(c1)C1(CCN(C(=O)CC(=O)Nc3ccccc3)CC1)OC(=O)N2	16	512 (≈ 1250 µM)	256 (≈ 625 µM)	> 512	256 (≈ 625 µM)									

These reach a lower MIC [2]. Values come first.

inhibition [1] [%]	MIC [2] [µg/mL]	MIC [3] [µg/mL]	MIC [4] [µg/mL]	MIC [5] [µg/mL]	IC50 [6] [µM]	MIC [7] [µg/mL]	MIC [8] [µg/mL]	MIC [9] [µg/mL]	MIC [10] [µg/mL]	Structure (SMILES)	fractional inhibitory concentration index (FICI) [11]	fractional inhibitory concentration index (FICI) [12]	fractional inhibitory concentration index (FICI) [13]	fractional inhibitory concentration index (FICI) [14]
11	128 (≈ 293 µM)	256 (≈ 585 µM)	> 512	256 (≈ 585 µM)						COc1ccc2c(c1)C1(CCN(C(=O)CCC(=O)Nc3ccc(C)cc3)CC1)OC(=O)N2				
34	128 (≈ 274 µM)	256 (≈ 549 µM)	107 (≈ 229 µM)	256 (≈ 549 µM)						COc1ccc2c(c1)C1(CCN(C(=O)/C=C/C(=O)Nc3cccc([N+](=O)[O-])c3)CC1)OC(=O)N2				
65	128 (≈ 294 µM)	256 (≈ 588 µM)	256 (≈ 588 µM)	256 (≈ 588 µM)	370					COc1ccc2c(c1)C1(CCN(C(=O)/C=C/C(=O)Nc3ccc(C)cc3)CC1)OC(=O)N2				
60	64 (≈ 142 µM)	128 (≈ 284 µM)	128 (≈ 284 µM)	256 (≈ 567 µM)	330					COc1ccc2c(c1)C1(CCN(C(=O)/C=C/C(=O)Nc3ccccc3OC)CC1)OC(=O)N2				
82	64 (≈ 142 µM)	64 (≈ 142 µM)	128 (≈ 284 µM)	256 (≈ 567 µM)	210	6.67	26	32	128	COc1ccc(NC(=O)/C=C/C(=O)N2CCC3(CC2)OC(=O)Nc2ccc(OC)cc23)cc1	1.1	1.125	0.625	3
69	64 (≈ 152 µM)	53.3 (≈ 127 µM)	53.3 (≈ 127 µM)	64 (≈ 152 µM)	280	32	26	16	64	COc1ccc2c(c1)C1(CCN(C(=O)/C=C/C(=O)Nc3ccccc3)CC1)OC(=O)N2	1	0.55	1.125	1.125

— ChEMBL document CHEMBL5331050, “Spiro[benzoxazine-piperidin]-one derivatives as chitin synthase inhibitors and antifungal agents: Design, synthesis and biological evaluation” (Eur J Med Chem, 2022)
